Experimental data reported in US20110038889A1, “METHODS AND COMPOSITIONS FOR ALTERING CELL FUNCTION” (ALLTECH, INC., priority 2005, published 2011).
Values belong to the compound of their own block, whether it stands above or below them.

How the values were obtained:
[1] = Body weight of mice on selenium diets; assay type: in vivo, mouse
Excerpt: (§1) Animal Care. Male C57BL/6J mice were housed singly and started on the experimental diets described below immediately after weaning (21 days of age). The mice were maintained in the Shared Aging Rodent Facility at the William S. Middleton Memorial Veterans Administration Medical Center (Madison, Wis.). Temperature and humidity were maintained at constant levels. Room light was controlled to provide 12-hr cycles of light and dark.
Experimental diets were created by Harlan Teklad (Madison, Wis.). Selenium content of the diets was determined by Covance Inc. (Madison, Wis.). […]
Thus, it was an object of the present invention to determine whether compositions and methods of the present invention could alter the expression levels (e.g., mRNA levels) of various genes. One group of genes analyzed were genes classically associated with selenium. As described above, the expression levels of genes were analyzed between mice with and without dietary selenium, or, between mice fed different sources of selenium) (See, e.g., Table 1, below).

[2] = tested on: sprouty homolog 2 gene (Spry2); experiment: Microarray gene expression, mouse intestine: Spry2; assay type: in vivo; settings: Example 7 (intestine); diet 1 ppm Se, 100 days; relative to Se-deficient controls
Excerpt: as §1
(§2) Experimental diets were created by Harlan Teklad (Madison, Wis.). Selenium content of the diets was determined by Covance Inc. (Madison, Wis.). Five (5) animals were included in each of the following treatment groups: a diet deficient in selenium (SD); a diet supplemented with selenomethionine (SM, obtained from Sigma,St. Louis, Mo.) such that the final selenium content of the diet was one (1) part per million; a diet supplemented with sodium selenite (SS, Sigma) such that the final concentration of selenium in this diet was one (1) part per million; or a diet supplemented with the yeast selenium SEL-PLEX (SP, Alltech, Lexington, Ky.), such that the final concentration of selenium in this diet was one (1) part per million. SEL-PLEX. […]
(§3) Tissue sample preparation and microarray analysis. […] For intestinal expression studies, the intestine was flushed twice with saline solution and small intestine was measured and divided in three equal segments. […]

[3] = tested on: type II iodothyronine deiodinase (Dio2); experiment: Microarray gene expression, mouse intestine: Dio2; assay type: in vivo; settings: Example 4 (intestine); diet 1 ppm Se, 100 days; vs selenium-deficient diet
Excerpt: as §1, §2, §3

[4] = tested on: Glyoxalase 1 (Glo1); experiment: Microarray gene expression, mouse intestine: Glo1; assay type: in vivo; settings: Example 4 (intestine); diet 1 ppm Se, 100 days; vs selenium-deficient diet; p<0.01 for SEL-PLEX
Excerpt: as §1, §2, §3

[5] = tested on: SelR (Selenoprotein X1); experiment: Microarray gene expression, mouse intestine: SelR; assay type: in vivo; settings: diet 1 ppm Se, 100 days, vs selenium-deficient diet, p<0.01 Sod-sel, p<0.05 SEL-PLEX
Excerpt: as §1, §2, §3

[6] = tested on: Growth arrest and DNA-damage-inducible 45 gamma (Gadd45g); experiment: Microarray gene expression, mouse intestine: Gadd45g; assay type: in vivo; settings: diet 1 ppm Se, 100 days, vs selenium-deficient diet, negative = down-regulated
Excerpt: as §1, §2, §3

[7] = tested on: transforming growth factor beta 2 (TGF-β2); experiment: Microarray gene expression, mouse intestine: TGF-β2; assay type: in vivo; settings: Example 5 (intestine); diet 1 ppm Se, 100 days; compared to controls
Excerpt: as §1, §2, §3

[8] = tested on: LIM homeobox protein 8 gene (Lhx8); experiment: Microarray gene expression, mouse intestine: Lhx8; assay type: in vivo; settings: Example 5 (intestine); diet 1 ppm Se, 100 days; vs Se-deficient subjects; p<0.01 for SEL-PLEX
Excerpt: as §1, §2, §3

[9] = tested on: CORS-26; experiment: Microarray gene expression, mouse cerebral cortex: CORS-26; assay type: in vivo; settings: Example 10 (cerebral cortex); diet 1 ppm Se, 100 days; vs selenium-deficient diet
Excerpt: as §1, §2, §3

[10] = tested on: Complement component 1, q subcomponent, gamma polypeptide, C1qg; experiment: Microarray gene expression, mouse cerebral cortex: C1qg; assay type: in vivo; settings: diet 1 ppm Se, 100 days, vs selenium-deficient diet, negative = down-regulated, * p<0.01
Excerpt: as §1, §2, §3

[11] = tested on: Selenoprotein W (SelW); experiment: Microarray gene expression, mouse intestine: SelW; assay type: in vivo; settings: diet 1 ppm Se, 100 days, vs selenium-deficient diet
Excerpt: as §1, §2, §3

[12] = tested on: selenoprotein N1 (Sepn1); experiment: Microarray gene expression, mouse intestine: Sepn1; assay type: in vivo; settings: diet 1 ppm Se, 100 days, vs selenium-deficient diet, p<0.02 for SEL-PLEX
Excerpt: as §1, §2, §3

[13] = tested on: Neurogenin 3 (Neurog3); experiment: Microarray gene expression, mouse intestine: Neurog3; assay type: in vivo; settings: Example 6 (intestine); diet 1 ppm Se, 100 days; vs selenium-deficient diet
Excerpt: as §1, §2, §3

[14] = tested on: Type 1 iodothyronine deiodinase; experiment: Microarray gene expression, mouse intestine: Type 1 iodothyronine deiodinase; assay type: in vivo; settings: diet 1 ppm Se, 100 days, vs selenium-deficient diet
Excerpt: as §1, §2, §3

[15] = Hen brain Se concentration after dietary selenium sources; assay type: in vivo, White-Egg-Laying Hens; settings: 0.3 ppm Se in hen diet; basal diet 870 ppb; Selenosource one sample only
Procedure: (§4) Compositions and methods of the present invention were utilized to evaluate the effects of various Se sources on the accumulation of brain Se concentrations in hens and their offspring.
(§5) The study was conducted at the Coldstream Research Facility from Jun. 28, 2004 until Nov. 16, 2004. Six dietary treatments were fed to a total of 48 hens (r=8) that were bred on three consecutive days starting on Sep. 16, 2004.
(§6) The dietary treatments were as follows: Basal (no added Se) Selenite (0.3 ppm) SEL-PLEX (0.3 ppm) Tepsel (0.3 ppm) Se 2000 (0.3 ppm) Selenosource (0.3 ppm)
(§7) Chicks that hatched were divided into two groups. Half of the chicks were killed for brain collection and the remaining chicks were allowed to grow for 14 days on a Se deficient diet, at which time they were terminated for brain collection. Hen brains were analyzed for Se content individually, whereas the chick brains were homogenized and pooled because of small sample size.

[16] = Chick brain Se concentration at day 14 (offspring of treated hens); assay type: in vivo, chicks (offspring of white-egg-laying hens); settings: chicks of hens fed 0.3 ppm Se; chicks grown 14 days on Se deficient diet; pooled brains; basal 786 ppb
Procedure: as §4, §5, §6, §7

[17] = tested on: Gst zeta 1 (Gstz1); experiment: Microarray gene expression, mouse brain: Gstz1; assay type: in vivo; settings: diet 1 ppm Se, 100 days, relative to Se-deficient animals, negative = down-regulated, * significant
Excerpt: as §1, §2, §3

[18] = tested on: Thioredoxin Reductase 1 gene; experiment: Microarray gene expression, mouse intestine: Thioredoxin Reductase 1; assay type: in vivo; settings: diet 1 ppm Se, 100 days, vs selenium-deficient diet, all p <0.01
Excerpt: as §1, §2, §3

[19] = tested on: Cathepsin Z; experiment: Microarray gene expression, mouse cerebral cortex: Cathepsin Z; assay type: in vivo; settings: diet 1 ppm Se, 100 days, relative to Se-deficient mice, negative = down-regulated, * significant
Excerpt: as §1, §2, §3

[20] = tested on: Glutathione S-transferase, alpha 3 (Gsta3); experiment: Microarray gene expression, mouse intestine: Gsta3; assay type: in vivo; settings: diet 1 ppm Se, 100 days, vs Se-deficient diets, negative = down-regulated, NS = not significant
Excerpt: as §1, §2, §3

[21] = tested on: calpain-5; experiment: Expression level of calpain genes after selenium administration; assay type: in vivo; settings: tissue not stated; + up, − down; * not explained at this place
Procedure: Compositions and methods of the present invention were analyzed to determine if they were capable of altering the expression levels of calpain genes. Compositions comprising various forms of selenium (e.g., SeM, Sod-sel, and SEL-PLEX) were administered to subjects and the expression levels of calpain genes monitored. The expression level of calpain-5 was altered by treatment in the following ways: free selenomethionine (SM) +1.32*, Sod-sel −1.07, SEL-PLEX −1.44*.

[22] = tested on: Glutathione S-transferase, mu2 (Gstm2); experiment: Microarray gene expression, mouse intestine: Gstm2; assay type: in vivo; settings: diet 1 ppm Se, 100 days, vs Se-deficient diets, negative = down-regulated, NS = not significant
Excerpt: as §1, §2, §3

[23] = tested on: Glutathione S-transferase, mu1 (Gstm1); experiment: Microarray gene expression, mouse intestine: Gstm1; assay type: in vivo; settings: diet 1 ppm Se, 100 days, vs Se-deficient diets, negative = down-regulated, NS = not significant
Excerpt: as §1, §2, §3

[24] = tested on: Glutathione S-transferase, mu3 (Gstm3); experiment: Microarray gene expression, mouse intestine: Gstm3; assay type: in vivo; settings: diet 1 ppm Se, 100 days, vs Se-deficient diets, negative = down-regulated, NS = not significant
Excerpt: as §1, §2, §3

[25] = tested on: Glutathione S-transferase, theta 2 (Gstt2); experiment: Microarray gene expression, mouse intestine: Gstt2; assay type: in vivo; settings: diet 1 ppm Se, 100 days, vs Se-deficient diets, negative = down-regulated, NS = not significant
Excerpt: as §1, §2, §3

Fold down-regulation of Dio2 expression [3]: no ability to alter | Fold reduction of Glo1 expression [4]: not significantly affected
SMILES: C[Se]CC[C@H](N)C(=O)O [SeM, selenomethionine]
Body weights of mice ([1]; mouse, in vivo): No significant differences | Fold reduction in Spry2 gene expression [2]: no alteration | Fold upregulation of SelR gene expression [5]: not significantly affected | FC (fold change) of Gadd45g expression [6]: −1.5 (p < 0.05) fold | Fold upregulation of TGF-β2 expression [7]: not altered | Fold upregulation of Lhx8 expression [8]: not significantly different | Fold reduction in expression of CORS-26 [9]: no alteration | FC (fold change) of C1qg expression [10]: 1.0 fold | Fold upregulation of Selenoprotein W (SelW) expression [11]: not significantly altered | Fold increase of selenoprotein N1 (Sepn1) gene expression [12]: not significantly affected | Fold upregulation of Neurog3 expression [13]: no significant alteration | Fold increase in expression level of Type 1 iodothyronine deiodinase [14]: 2.0 fold

SMILES: O=[Se](O)O [Selenite]
Hen Brain Se Concentration [15]: 850 ppb | Chick Brain Se Concentration at day 14 [16]: 784 ppb

SMILES: O=[Se](O)O [Sod-sel, sodium selenite]
Body weights of mice ([1]; compared among selenium-deficient, Se-meth, Sod-sel and SEL-PLEX diets (FIG. 1)): No significant differences | FC (fold change) of Gstz1 expression in brain [17]: −1.3 fold | Fold upregulation of SelR gene expression [5]: 1.3 fold | Fold increase in expression of the Thioredoxin Reductase 1 gene [18]: 1.7 fold | FC (fold change) of Cathepsin Z expression [19]: −1.30* fold | FC (fold change) of Gadd45g expression [6]: −2.0 (p < 0.01) fold | FC (fold change) of Gsta3 expression [20]: −2.3 fold | Alteration of expression level of calpain-5 [21]: −1.07 | FC (fold change) of Gstm2 expression [22]: −2.1 fold | Fold upregulation of Selenoprotein W (SelW) expression [11]: 5.1 fold | FC (fold change) of Gstm1 expression [23]: −2.4 fold | FC (fold change) of Gstm3 expression [24]: −2.7 fold | Fold increase in expression level of Type 1 iodothyronine deiodinase [14]: 2.8 fold | FC (fold change) of Gstt2 expression [25]: −1.3 fold
